Assay results: patent publication US5328902A, “7-(substituted)-9-[(substituted glycyl)amido]-6-demethyl-6-deoxytetracyclines” (American Cyanamid Co., priority 1992, dated 1994)
≈ marks a conversion by molar mass, not a printed value.

Key:
E. coli UBMS 88-1 Tet B = assay: microbe, parasite or virus in culture; assay type: cell-based; conditions: E. coli UBMS 88-1 Tet B; 18 hours at 35° C.
E. coli J3272 Tet sens. = assay: MIC, agar dilution; assay type: cell-based
E. coli PRP1 Tet A = assay: microbe, parasite or virus in culture; assay type: cell-based; conditions: E. coli PRP1 Tet A
[1] = tested on: E. coli MC 4100 TNIOC Tet B; assay: microbe, parasite or virus in culture; assay type: cell-based; conditions: E. coli MC 4100 TNIOC Tet B
E. coli J3272 Tet C = assay: microbe, parasite or virus in culture; assay type: cell-based; conditions: E. coli J3272 Tet C
E. coli UBMS 89-1 Tet M = assay: microbe, parasite or virus in culture; assay type: cell-based; conditions: E. coli UBMS 89-1 Tet M
[2] = tested on: E. coli UBMS 89-2 Tet sens.; assay: MIC, agar dilution; assay type: cell-based; conditions: E. coli UBMS 89-2 Tet sens.
E. coli J2175 = assay: MIC, agar dilution; assay type: cell-based; conditions: E. coli J2175
E. coli UBMS 90-4 Tet M = assay: microbe, parasite or virus in culture; assay type: cell-based; conditions: E. coli UBMS 90-4 Tet M
E. coli UBMS 90-5 = assay: MIC, agar dilution; assay type: cell-based
E. coli #311 (MP) = assay: MIC, agar dilution; assay type: cell-based; conditions: E. coli #311 (MP)
E. coli ATCC 25922 = assay: MIC, agar dilution; assay type: cell-based; conditions: E. coli ATCC 25922
E. coli J3272 Tet D = assay: microbe, parasite or virus in culture; assay type: cell-based; conditions: E. coli J3272 Tet D
S. mariescens FPOR 8733 = assay: MIC, agar dilution; assay type: cell-based
[3] = tested on: Ps. acruginosa ATCC 27853; assay: MIC, agar dilution; assay type: cell-based; conditions: Ps. acruginosa ATCC 27853
S. aureus NEMC 8769 = assay: MIC, agar dilution; assay type: cell-based; conditions: S. aureus NEMC 8769
S. aureus UBMS 88-4 = assay: MIC, agar dilution; assay type: cell-based; conditions: S. aureus UBMS 88-4
[4] = tested on: S. aureus UBMS 88-5 Tet M; assay: microbe, parasite or virus in culture; assay type: cell-based; conditions: S. aureus UBMS 88-5 Tet M
[5] = tested on: S. aureus UBMS 88-7 Tet K; assay: microbe, parasite or virus in culture; assay type: cell-based; conditions: S. aureus UBMS 88-7 Tet K
[6] = tested on: S. aureus UBMS 90-1 Tet M; assay: microbe, parasite or virus in culture; assay type: cell-based; conditions: S. aureus UBMS 90-1 Tet M
S. aureus UBMS 90-3 = assay: MIC, agar dilution; assay type: cell-based; conditions: S. aureus UBMS 90-3
[7] = tested on: S. aureus UBMS 90-2 Tet M; assay: microbe, parasite or virus in culture; assay type: cell-based; conditions: S. aureus UBMS 90-2 Tet M
S. aureus IVES 2943 = assay: MIC, agar dilution; assay type: cell-based; conditions: S. aureus IVES 2943
S. aureus ROSE (MP) = assay: MIC, agar dilution; assay type: cell-based; conditions: S. aureus ROSE (MP)
S. aureus SMITH (MP) = assay: MIC, agar dilution; assay type: cell-based; conditions: S. aureus SMITH (MP)
S. aureus IVES 1 983 = assay: MIC, agar dilution; assay type: cell-based; conditions: S. aureus IVES 1 983
S. aureus ATCC 29213 = assay: MIC, agar dilution; assay type: cell-based; conditions: S. aureus ATCC 29213
[8] = tested on: S. hemolyticus AVHAH 88-3; assay: MIC, agar dilution; assay type: cell-based; conditions: S. hemolyticus AVHAH 88-3
Enterococcus 12201 = assay: MIC, agar dilution; assay type: cell-based; conditions: Enterococcus 12201
the ribosome = assay: Reversibility of binding: bacterial growth resumes after washing; assay type: cell-based; conditions: bacterial growth resumes when the compound is removed from the cultures by washing
Source text: Therefore, the ability of these compounds to inhibit bacterial growth appears to be a direct consequence of its ability to inhibit protein synthesis at the ribosome level.

[9] = tested on: Wild Type S30 (wild type ribosomes, E. coli strain MRE600, tetracycline sensitive); assay: E. coli in vitro protein translation system, wild type S30; conditions: for inhibition of protein synthesis occuring on wild type ribosomes: coupled transcription and translation system
E. coli BAJ9003 IMP MUT = assay: microbe, parasite or virus in culture; assay type: cell-based; conditions: E. coli BAJ9003 IMP MUT
E. faecalis ATCC 29212 = assay: MIC, agar dilution; assay type: cell-based; conditions: E. faecalis ATCC 29212
[10] = tested on: E. coli MC 4100 Tet sens.; assay: MIC, agar dilution; assay type: cell-based
[11] = tested on: X. maltophilia NEMC 87210; assay: MIC, agar dilution; assay type: cell-based

Compound | MIC (E. coli PRP1 Tet A) [µg/mL] | MIC [1] [µg/mL] | MIC (E. coli J3272 Tet C) [µg/mL] | MIC (E. coli UBMS 89-1 Tet M) [µg/mL] | MIC [2] [µg/mL] | MIC (E. coli J2175) [µg/mL] | MIC (E. coli UBMS 90-4 Tet M) [µg/mL] | MIC (E. coli UBMS 90-5) [µg/mL] | MIC (E. coli #311 (MP)) [µg/mL] | MIC (E. coli ATCC 25922) [µg/mL] | MIC (E. coli J3272 Tet D) [µg/mL] | MIC (S. mariescens FPOR 8733) [µg/mL] | MIC [3] [µg/mL] | MIC (S. aureus NEMC 8769) [µg/mL] | MIC (S. aureus UBMS 88-4) [µg/mL] | MIC [4] [µg/mL] | MIC [5] [µg/mL] | MIC [6] [µg/mL] | MIC (S. aureus UBMS 90-3) [µg/mL] | MIC [7] [µg/mL] | also measured
[4S-(4alpha,12aalpha)]-4,7-Bis(dimethylamino-1,4,4a,5,5a,6,11,12a-octahydro-3,10, 12,12a-tetrahydroxy-9-[[[(2-(methoxyethyl)amino]acetyl]amino]-1,11-dioxo-2-naphthacenecarboxamide dihydrochloride | 8 | 2 | 4 | 2 | 2 | 2 | 2 | 2 | 2 | 2 | 1 | > 32 | > 32 | 0.5 | 0.5 | 1 | 16 | 2 | 0.5 | 0.5 | MIC (E. coli UBMS 88-1 Tet B): 2 µg/mL; MIC (E. coli J3272 Tet sens.): 2 µg/mL; MIC (S. aureus IVES 2943): 32 µg/mL; MIC (S. aureus ROSE (MP)): 32 µg/mL; MIC (S. aureus SMITH (MP)): 0.5 µg/mL; MIC (S. aureus IVES 1 983): 32 µg/mL; MIC (S. aureus ATCC 29213): 1 µg/mL; MIC [8]: 2 µg/mL; MIC (Enterococcus 12201): 0.5 µg/mL; reversibility of binding to the ribosome (the ribosome): bind reversibly; % Inhibition Wild Type S30 ([9]; Conc. 0.06 mg/ml): 92%; % Inhibition Wild Type S30 ([9]; Conc. 1.0 mg/ml): 98%; inhibition of protein synthesis occuring on wild type ribosomes [9]: effectively inhibit protein synthesis
[4S-(4alpha,12aalpha)]-4,7-Bis(dimethylamino)-1,4,4a,5,5a,6,11,12a-octahydro-3,10, 12,12a-tetrahydroxy-9-[[[(3-methoxypropyl)amino]acetyl]amino]-1,11-dioxo-2-naphthacenecarboxamide dihydrochloride | 4 | 2 | 1 | 2 | 1 | 1 | 1 | 1 | 1 | 1 | 0.5 | 16 | 32 | 0.25 | 1 | 0.5 | 8 | 2 | 0.5 | 0.5 | MIC (E. coli J3272 Tet sens.): 1 µg/mL; MIC (E. coli BAJ9003 IMP MUT): 0.12 µg/mL; MIC (S. aureus IVES 2943): 16 µg/mL; MIC (S. aureus ROSE (MP)): 16 µg/mL; MIC (S. aureus SMITH (MP)): 0.5 µg/mL; MIC (S. aureus IVES 1 983): 16 µg/mL; MIC (S. aureus ATCC 29213): 1 µg/mL; MIC [8]: 2 µg/mL; MIC (Enterococcus 12201): 0.5 µg/mL; MIC (E. faecalis ATCC 29212): 0.25 µg/mL; reversibility of binding to the ribosome (the ribosome): bind reversibly; % Inhibition Wild Type S30 ([9]; Conc. 0.06 mg/ml): 88%; inhibition of protein synthesis occuring on wild type ribosomes [9]: effectively inhibit protein synthesis
CN(CCO)CC(=O)Nc1cc(N(C)C)c2c(c1O)C(=O)C1=C(O)[C@]3(O)C(=O)C(C(N)=O)=C(O)[C@@H](N(C)C)C3CC1C2 (stereo partly drawn) [Q] | > 32 | > 32 | > 32 | 32 (≈ 54.5 µM) | 32 (≈ 54.5 µM) | 32 (≈ 54.5 µM) | 16 (≈ 27.2 µM) | 32 (≈ 54.5 µM) | 32 (≈ 54.5 µM) | 32 (≈ 54.5 µM) | 32 (≈ 54.5 µM) | 16 (≈ 27.2 µM) | > 32 | 8 (≈ 13.6 µM) | 8 (≈ 13.6 µM) | 16 (≈ 27.2 µM) | 32 (≈ 54.5 µM) | 32 (≈ 54.5 µM) | 8 (≈ 13.6 µM) | 16 (≈ 27.2 µM) | MIC (E. coli UBMS 88-1 Tet B): 32 µg/mL (≈ 54.5 µM); MIC [10]: 4 µg/mL (≈ 6.81 µM); MIC (E. coli BAJ9003 IMP MUT): 2 µg/mL (≈ 3.4 µM); MIC [11]: 8 µg/mL (≈ 13.6 µM); MIC (S. aureus IVES 2943): > 32 µg/mL; MIC (S. aureus ROSE (MP)): > 32 µg/mL; MIC (S. aureus SMITH (MP)): 8 µg/mL (≈ 13.6 µM); MIC (S. aureus IVES 1 983): > 32 µg/mL; MIC (S. aureus ATCC 29213): 16 µg/mL (≈ 27.2 µM); MIC [8]: 16 µg/mL (≈ 27.2 µM); MIC (Enterococcus 12201): 4 µg/mL (≈ 6.81 µM); MIC (E. faecalis ATCC 29212): 4 µg/mL (≈ 6.81 µM)
C#CCN(C)CC(=O)Nc1cc(N(C)C)c2c(c1O)C(=O)C1=C(O)[C@]3(O)C(=O)C(C(N)=O)=C(O)[C@@H](N(C)C)[C@@H]3C[C@@H]1C2 [V, [4S-(4alpha,12aalpha)]-4,7-Bis(dimethylamino)-1,4,4a,5,5a,6,11,12a-octahydro-3,10, 12,12a-tetrahydroxy-9-[[[methyl-2-propynylamino]acetyl]amino]-1,11-dioxo-2-naphthacenecarboxamide] | > 32 | > 32 | > 32 | > 32 | > 32 | > 32 | > 32 | > 32 | > 32 | > 32 | > 32 | > 32 | > 32 | 4 (≈ 6.88 µM) | 4 (≈ 6.88 µM) | 8 (≈ 13.8 µM) | 32 (≈ 55 µM) | 16 (≈ 27.5 µM) | 4 (≈ 6.88 µM) | 8 (≈ 13.8 µM) | MIC (E. coli UBMS 88-1 Tet B): > 32 µg/mL; MIC [10]: 32 µg/mL (≈ 55 µM); MIC (E. coli BAJ9003 IMP MUT): 4 µg/mL (≈ 6.88 µM); MIC [11]: 32 µg/mL (≈ 55 µM); MIC (S. aureus IVES 2943): > 32 µg/mL; MIC (S. aureus ROSE (MP)): > 32 µg/mL; MIC (S. aureus SMITH (MP)): 4 µg/mL (≈ 6.88 µM); MIC (S. aureus IVES 1 983): > 32 µg/mL; MIC (S. aureus ATCC 29213): 4 µg/mL (≈ 6.88 µM); MIC [8]: 32 µg/mL (≈ 55 µM); MIC (Enterococcus 12201): 8 µg/mL (≈ 13.8 µM); MIC (E. faecalis ATCC 29212): 4 µg/mL (≈ 6.88 µM)
CN(C)c1cc(NC(=O)CNN2CCCCC2)c(O)c2c1CC1CC3C(N(C)C)C(O)=C(C(N)=O)C(=O)C3(O)C(O)=C1C2=O (stereo not drawn) [W, [4S-(4alpha,12aalpha)]-4,7-Bis(dimethylamino)-1,4,4a,5,5a,6,11,12a-octahydro-3,10, 12,12a-tetrahydroxy-hydroxy-1,11-dioxo-9[[(1-piperidinylamino)acetyl]amino]-2naphthacenecarboxamide] | > 32 | > 32 | > 32 | > 32 | > 32 | > 32 | > 32 | > 32 | > 32 | > 32 | > 32 | > 32 | > 32 | > 32 | > 32 | > 32 | > 32 | > 32 | 16 (≈ 26.1 µM) | > 32 | MIC (E. coli UBMS 88-1 Tet B): > 32 µg/mL; MIC [10]: 32 µg/mL (≈ 52.2 µM); MIC (E. coli BAJ9003 IMP MUT): 16 µg/mL (≈ 26.1 µM); MIC [11]: > 32 µg/mL; MIC (S. aureus IVES 2943): > 32 µg/mL; MIC (S. aureus ROSE (MP)): > 32 µg/mL; MIC (S. aureus SMITH (MP)): 16 µg/mL (≈ 26.1 µM); MIC (S. aureus IVES 1 983): > 32 µg/mL; MIC (S. aureus ATCC 29213): 32 µg/mL (≈ 52.2 µM); MIC [8]: > 32 µg/mL; MIC (Enterococcus 12201): > 32 µg/mL; MIC (E. faecalis ATCC 29212): > 32 µg/mL
